Bounds are passed on as bounds.

This test is filed under the species Rattus norvegicus. Kind of test: In vitro metabolism of radiolabeled compound at 10 uM was performed in rat microsomal protein containing a NADPH-regenerating system for 1 hr at 37 degree C. The class given is functional.

In turn, `Cc1cncc(C)c1CC(c1ccc(C(O)(C(F)(F)F)C(F)(F)F)cc1)c1ccc(OCF)c(OC(F)F)c1` (stereo not given) displayed a Covalent binding of less than 0.05%.
Regarding `Cc1cncc(C)c1CC(c1ccc(C(O)(C(F)(F)F)C(F)(F)F)cc1)c1ccc(OCF)c(OC2CCC2)c1` (stereo not given), the Covalent binding was 0.45%.
On to `COc1ccc([C@H](Cc2ccncc2)c2ccc(C(O)(C(F)(F)F)C(F)(F)F)cc2)cc1OC1CCCC1`, for which the Covalent binding (tested as the 3H-labelled form) came to 3.1%.
Consider `COc1ccc(C(Cc2c(C)cncc2C)c2ccc(C(O)(C(F)(F)F)C(F)(F)F)cc2)cc1OC1CCCC1` (stereo not given), for which the Covalent binding amounted to 2.9%.
`[O-][n+]1ccc(CC(c2ccc(C(O)(C(F)(F)F)C(F)(F)F)cc2)c2ccc(OC(F)F)c(OC(F)F)c2)cc1` (stereo not given) registered a Covalent binding of less than 0.05%.

The values above are taken from ChEMBL document CHEMBL1134861, “Improving metabolic stability of phosphodiesterase-4 inhibitors containing a substituted catechol: prevention of reactive intermediate formation and covalent binding” (Bioorg Med Chem Lett, 2002).
